Measured values published in US9649268B2, “Glucuronolactone derivatives as self-tanning substances” (MERCK PATENT GMBH, priority 2011, dated 2017).

Tests used:
[1] = Liquid skin model (reaction with L-lysine, L*a*b* values); settings: after 24 hours; for L* / a* / b*: 1 mmol compound + 1 mmol L-lysine, phosphate-buffered water (pH=7)/ethylene glycol
Experimental: The mixture is subsequently made up to the mark with a mixture of 6 ml of phosphate-buffered water (pH=7) and 94 ml of ethylene glycol. The reaction is observed with vigorous stirring, and the L*a*b* values are determined after 24 hours.

[2] = tested on: histological explants from the lower abdomen tissue of a person; experiment: Ex-vivo study on skin explants, chromametric measurement (ITA); set-up: species or system human; settings: for Day 5 (ITA value): 30 μl on 5 consecutive days, 2 h
Experimental: 24 histological explants having an average diameter of 10 mm are prepared from the lower abdomen tissue of a person. The pieces of tissue are kept in BEM medium (BIO-EC's explants medium) at 37° C. in a humid atmosphere comprising 5% of CO2.
The tissue is divided into 8 batches of 3 explants each:
30 μl of the substance solutions are applied on 5 consecutive days using a round filter paper and left to act for 2 h. On days 0, 5 and 8, tissue sections with a thickness of 5 μm are prepared from the explants. These sections are investigated morphologically and measured chromametrically.
The colour measurements are carried out using a Minolta CR-300 Chroma-meter, and the L, a and b values are read off correspondingly on the instrument.
Principle of the Chromametric Measurement:
The following parameters are set:
In 1931, a test series was carried out by the CIE (Commision Internationale de L'Eclairage), where the “2-degree standard observer” was defined. A colour area is present here which is viewed at a viewing angle of 2 degrees. This viewing angle is used as standard in the chromametric measurement. • Irradiation source D65, corresponding to daylight • Region of the measurement: 3 mm • Parameters used: L* a* b*
The sample is placed on the bearing rail with the epidermis facing downwards. The irradiation is carried out from the underside through the area indicated (3 mm).
In the colorimetric determinations <<L a b>>, the L value determines the contrast of the skin. If the L value drops, the skin appears darker.
ITA is defined as arctan g[(L−50)/b]. If the ITA index increases, the skin appears paler.

[3] = Stability/odour of test formulations on storage; type: physicochemical; settings: formulation with 5% active compound (mixture: 5% DHA + 1% compound Ia), stored at 40° C. for 8 weeks
Experimental: In order to compare the odour and stability of glucuronolactone, glucuronolactone acetonide of the formula (Ia), DHA and a combination in a formulation, 5 formulations are prepared: one without active compound as placebo, one with 5% of glucuronolactone, one with 5% of compound (Ia), one with 5% of DHA and one with 5% of DHA+1% of compound (Ia) (denoted by “active compound” in the recipe).
The following recipe is used:
Sources of Supply: (1) Sasol Germany GmbH, (2) Cognis GmbH, (3) Hansen&Rosenthal KG, (4) Merck KGaA/Rona®, (5) Alfa Aesar Preparation of the Formulations: […]
Heat phase A, heat phase B, prepare phase C on a magnetic stirrer (first introduce water, then add thickener), then homogenise phase C with phase B using an Ultra-Turrax and at the same time slowly add phase A. Subsequently add phase D and likewise homogenise well.
In the case of the 5th cream (with DHA and glucuronolactone acetonide), adjust the water proportion correspondingly.

[4] = Colouring test on merino wool balls; settings: 1 mmol in 100 ml buffer (pH 7)/ethylene glycol 6/94, RT, 24 h, then washed and dried
Experimental: 1 mmol of each of DHA and the glucuronolactone derivatives are weighed out into a 100 ml conical flask with ground-glass joint:
(2) Glucuronolactone: 176 mg
(3) Compound (Ia): 216 mg
(4) Compound (Ic): 264 mg
A merino wool ball with the size of a grape and a magnetic stirrer are then added to each conical flask.
A mixture of 6% by vol. of buffer (ph7) and 94% by vol. of ethylene glycol is then prepared, 100 ml of this mixture are added to each conical flask and stirred at RT for 24 h.
After 24 h, the wool balls are washed firstly with water, then with warm washing-powder solution and again with water and dried.
This colouring result can also be applied to hair, since merino wool, like hair, is built up from proteins (keratins) and the outermost layer is in each case the cuticle.

| SMILES | L* [1] | a* [1] | b* [1] | L values compared with erythrulose (darker colour) [1] | Day 5 (ITA value) ([2]; 1% solution) [%] | Day 5 (ITA value) ([2]; 4% solution) [%] | colour effect ([2]; identical concentration in the test formulation) | odour of the formulation [3] | colouration of wool samples compared with the untreated sample [4] | melting point [°C] |
| --- | --- | --- | --- | --- | --- | --- | --- | --- | --- | --- |
| CC1(C)OC2OC3C(O)C(=O)OC3C2O1 (stereo not shown) [Compound Ia, glucuronolactone acetonide] | 82.6 | 29.4 | 103.7 | lower L values than erythrulose | −2 | −5 | comparable to erythrulose | produce no odour | yellow colouration |  |
| COC1OC2C(O)C(=O)OC2C1O (stereo not shown) [Compound Ib] | 81.1 | 30.8 | 103.8 | lower L values than erythrulose |  |  |  |  |  |  |
| O=C1OC2C3OC(c4ccccc4)OC3OC2C1O [Compound Ic, 1,2-O—(R,S)-(Benzylidene)-α-D-glucofuranurono-6,3-lactone] | 68.0 | 55.2 | 109.6 | lower L values than erythrulose |  |  |  |  | yellow colouration |  |
| COc1ccc(C2OC3OC4C(O)C(=O)OC4C3O2)cc1 [Compound Ie, 1,2-O—(R,S)-(4-Methoxybenzylidene)-α-D-glucofuranurono-6,3-lactone] | 76.4 | 39.1 | 106.7 | lower L values than erythrulose |  |  |  |  |  |  |
| COc1cc(C2OC3OC4C(O)C(=O)OC4C3O2)ccc1O [Compound Ig, 1,2-O—(R,S)-(4-hydroxy-3-methoxybenzylidene)-α-D-glucofuranurono-6,3-lactone] | 80.9 | 32.0 | 100.0 | lower L values than erythrulose |  |  |  |  |  | 82 |
| O=C(CO)CO [DHA, 1,3-dihydroxyacetone, reference compound] | 46.7 | 27.2 | 69.4 |  | −15 |  |  | developed the typical DHA odour | no colouration |  |
| O=C(CO)[C@H](O)CO [Erythrulose, reference compound] | 92.6 | 4.8 | 35.8 |  |  | −5 |  |  |  |  |
| O=C[C@H](O)[C@H]1OC(=O)[C@@H](O)[C@H]1O [Glucuronolactone] | 96.1 | 4.3 | 45.9 |  | −3 |  |  | produce no odour | no colouration |  |
